Assay results as given in paper PMC8776094, “Reactive Oxygen Species Production Is Responsible for Antineoplastic Activity of Osmium, Ruthenium, Iridium and Rhodium Half-Sandwich Type Complexes with Bidentate Glycosyl Heterocyclic Ligands in Various Cancer Cell Models” (International Journal of Molecular Sciences, 2022).
“And” between values parts separate entries of the source, which are not always exact repeats. Equal values may be shown once. Read-outs that look alike come from different tables or passages of the source.

Key:
[1] = set-up: method as in PMID 34638791; conditions: data previously published; cited from earlier work
[2] = test system: ID8 ovarian cancer cell line; set-up: method as in PMID 34638791; conditions: SRB assay, 48 h; data previously published; cited from earlier work
[3] = test system: A2780 ovarian cancer cells; set-up: method as in PMID 34638791; conditions: SRB assay, 48 h; data previously published; cited from earlier work
[4] = test system: Capan2, a pancreatic adenocarcinoma cell line; set-up: method as in PMID 34638791; conditions: SRB assay, 48 h; data previously published; cited from earlier work
[5] = test system: human primary fibroblasts; test: SRB assay, 48 h, cytostasis, primary fibroblasts; format: cell-based; conditions: MTT 4 h and SRB 48 h
Experimental: The compounds were tested between 0.001694 and 33.3333 µM, using a 4-hour-long MTT test to assess rapid toxicity and a 48-hour-long SRB assay to assess the long-term effects of the inhibition of proliferation (cytostasis). The MTT assay assesses the activity of mitochondrial complex I and detects rapid, direct toxicity, as well as indicating apoptosis and necrosis. The SRB assay measures the total protein content that is proportional to cell numbers; therefore, the assay can detect changes in cell numbers and can thus be used as a readout for cell proliferation. The SRB assay was performed after 48 h of treatment (with the exception of L428 cells, which were tested for 96 h due to their slower proliferation rate). In this setting, the SRB assay informs us of long-term changes to cell proliferation. We assessed the maximal inhibition within that concentration range, and descriptive statistics were performed. We performed a one-way ANOVA, followed by the Kruskal–Wallis test, regardless of the normal or non-normal distribution of the data. […]
The assay was performed similarly to the method used in [73]. […] Plates were measured in a plate photometer (Thermo Scientific Multiscan GO spectrophotometer, Waltham, MA, USA) at 540 nm. […] In calculations, the readings for these wells were considered as 1 and all readings were expressed relative to these values. […]

[6] = test system: ID8 ovarian cancer cell line; test: SRB assay, 48 h, cytostasis, ID8; format: cell-based; conditions: 48 h treatment
Experimental: (§1) The compounds were tested between 0.001694 and 33.3333 µM, using a 4-hour-long MTT test to assess rapid toxicity and a 48-hour-long SRB assay to assess the long-term effects of the inhibition of proliferation (cytostasis). The MTT assay assesses the activity of mitochondrial complex I and detects rapid, direct toxicity, as well as indicating apoptosis and necrosis. The SRB assay measures the total protein content that is proportional to cell numbers; therefore, the assay can detect changes in cell numbers and can thus be used as a readout for cell proliferation. The SRB assay was performed after 48 h of treatment (with the exception of L428 cells, which were tested for 96 h due to their slower proliferation rate). In this setting, the SRB assay informs us of long-term changes to cell proliferation. We assessed the maximal inhibition within that concentration range, and descriptive statistics were performed. We performed a one-way ANOVA, followed by the Kruskal–Wallis test, regardless of the normal or non-normal distribution of the data. Due to the large number of significance values, the results of the significance calculations are provided in an Excel spreadsheet at https://figshare.com/s/28d14597d5041f08eb08 (accessed on 6 January 2022), among other primary data of the study. Where possible, nonlinear regression was performed on the curves to determine the IC50 values ((inhibitor) vs. response—variable slope (four parameters) method with Graphpad v8.0.1). […] In Table 5, we added the IC50 values that we determined for a set of 4 active ruthenium half-sandwich complexes we identified previously, to be used in subsequent structure-activity relationship (SAR) analyses.
ID8 cells were cultured in a high-glucose DMEM (4.5 g/L glucose) medium, supplemented with 4% fetal calf serum, 2 mM glutamine, 1% penicillin-streptomycin, and 1% ITS supplement (I3146).
(§2) The assay was performed similarly to the method used in [73]. Cells were seeded in 96-well plates the day before the assay. Cells were treated with the compounds for 48 h, with the exception of L428, where 96 h of treatment was applied. Cells were fixed with 10% trichloroacetic acid (TCA). Fixed cells were washed in distilled water 3 times, followed by staining with SRB (0.4 m/V% dissolved in 1% acetic acid) for 10 min. The stained cells were washed in 1% acetic acid 5 times; the acetic acid was removed, and the cells were left to dry. Protein-bound SRB was released by adding 100 µL 10 mM Tris base. Plates were measured in a plate photometer (Thermo Scientific Multiscan GO spectrophotometer, Waltham, MA, USA) at 540 nm. On each plate, wells were designed to contain untreated cells. In calculations, the readings for these wells were considered as 1 and all readings were expressed relative to these values.
(§3) Statistical analysis was performed using the 8.0.1 version of Graphpad Prism. Values were tested for normal distribution, using the d’Agostino and Pearson normality test. When necessary, values were log-normalized or were normalized using the Box-Cox normalization method or using a two-step transformation, as indicated in the figure captions. Nonlinear regression was performed using the built-in “[Inhibitor] vs. Response—Variable slope (four parameters), least-square fit” utility of Graphpad, yielding the IC50 and Hill slope values.

[7] = test system: A2780 ovarian cancer cells; test: SRB assay, 48 h, cytostasis, A2780; format: cell-based; conditions: 48 h treatment
Experimental: as §1
(§4) A2780 cells were cultured in RMPI 1640 medium, supplemented with 10% fetal calf serum, 2 mM glutamine, and 1% penicillin-streptomycin.
as §2, §3

[8] = test system: A2780 ovarian cancer cells; test: MTT reduction assay, 4 h, rapid toxicity, A2780; format: cell-based; conditions: 4 h treatment
Experimental: as §1, §4
The MTT reduction assay measures the activity of mitochondrial complex I and can be used to detect apoptosis and necrosis. The assay was performed similarly to the method used in [72]. Briefly, cells were plated in 96-well plates the day before the assay. Cells were treated with the compounds for 4 h, then MTT was added at 0.5 mg/mL final concentration and the cells were incubated at 37 °C in a cell incubator. The culture media were removed and the reduced MTT dye was dissolved in dimethyl-sulfoxide (DMSO) and plates were measured in a plate photometer (Thermo Scientific Multiscan GO spectrophotometer, Waltham, MA, USA) at 540 nm. On each plate, wells were designed to contain untreated/vehicle-treated cells. In the calculations, the readings for these wells were considered as 1 and all readings were expressed relative to these values.

[9] = Determination of the distribution coefficients (logD), n-octanol/PBS; format: physicochemical; conditions: n-octanol / PBS pH = 7.40, rt
Experimental: Before starting the experiments, n-octanol was saturated with an aqueous PBS solution (pH = 7.40) and vice versa. A solution of the appropriate complex (approximately 0.2–0.3 mg) in a mixture of 2.50 mL pre-saturated n-octanol and 2.50 mL pre-saturated PBS buffer was made, and the resulting mixture was then vigorously stirred for 3 days at rt. Based on our previous NMR stability experiments, this time is long enough to reach equilibrium among the various ionic complex species. Due to the lipophilic/hydrophilic features of the complexes, those with benzoyl protection could primarily be found in the n-octanol, while the complexes with O-peracetylated and O-deprotected ligands were in the aqueous PBS phase. The corresponding separated solution was centrifuged (ScanSpeed 406G instrument, 4000 RPM for 5 min) and the absorption of the ”stock solution” was determined (VWR UV-1600PC Spectrophotometer, 270–420 nm). Then, 2.00 mL of the stock solution was vigorously stirred with 16.00 mL of pre-saturated n-octanol or PBS solution. After one day had passed, the phases were separated, centrifuged, and the absorption of the solution was measured again. From the absorption difference of the stock solutions, the distribution coefficient (D) was determined using previously described formulae [71].

[10] = test system: human primary fibroblasts; set-up: method as in PMID 34638791; conditions: SRB assay, 48 h, data previously published, cited from earlier work

Compound	LogD [1]	IC50 [2] [µM]	ID8 Max. Inh. (%) [2] [%]	A2780 Max. Inh. (%) [3] [%]	IC50 [3]	Capan2 Max. Inh. (%) [4] [%]	IC50 [4] [µM]	cytostatic activity on A2780 cells in SRB assay (in words) [7]	toxicity on A2780 cells in short-term MTT assay (in words) [8]	also measured
Cc1ccc(C(C)C)cc1.F[P-](F)(F)(F)(F)F.O=C(OCC1OC(c2nnc(-c3ccccn3)o2)C(OC(=O)c2ccccc2)C(OC(=O)c2ccccc2)C1OC(=O)c1ccccc1)c1ccccc1.[Cl][Ru+] (mixture of isomers) [Ru-4]	2.44	7.94	100	100	4.3 µM and 4.27 µM	100	3.82			
Cc1ccc(C(C)C)cc1.F[P-](F)(F)(F)(F)F.O=C(OCC1OC(n2cc(-c3ccccn3)nn2)C(OC(=O)c2ccccc2)C(OC(=O)c2ccccc2)C1OC(=O)c1ccccc1)c1ccccc1.[Cl][Ru+] (mixture of isomers) [Ru-6]	2.85	2.15	100	100	0.87 µM	100	2.18			
dichloro(pentamethylcyclopentadienyl)rhodium(III) dimer [Rh-dimer]								inactive		cytotoxic or cytostatic activity on fibroblasts (in words) [5]: None of the complexes Rh-3‒Rh-6 or the Rh-dimer exerted cytotoxic or cytostatic activity on fibroblasts; cytostatic activity on ID8 cells, SRB assay (in words) [6]: inactive
Cc1ccc(C(C)C)cc1.F[P-](F)(F)(F)(F)F.OCC1OC(c2noc(-c3ccccn3)n2)C(O)C(O)C1O.[Cl][Ru+] (mixture of isomers) [Ru-2]								neither of them showed considerable activity	neither of them showed considerable activity	LogD [9]: −0.96
Cc1c(C)c(C)[c-](C)c1C.Cc1c(C)c(C)[c-](C)c1C.[Cl-].[Cl-].[Cl-].[Cl-].[Ir+3].[Ir+3] [Ir-dimer, dichloro(pentamethylcyclopentadienyl)iridium(III) dimer]								inactive		cytotoxic or cytostatic activity on fibroblasts (in words) [5]: None of the complexes, Ir-1‒Ir-12, or the Ir-dimer exerted cytotoxic or cytostatic activity on fibroblasts; cytostatic activity on ID8 cells, SRB assay (in words) [6]: inactive
Cc1ccc(C(C)C)cc1.F[P-](F)(F)(F)(F)F.O=C(OC1COC(c2nnc(-c3ccccn3)o2)C(OC(=O)c2ccccc2)C1OC(=O)c1ccccc1)c1ccccc1.[Cl][Ru+] (mixture of isomers) [Ru-5]	2.04	6.76	100	100	8.5 µM and 8.54 µM	100	4.97			Fibroblast Max. Inh. (%) ([10]; ND = not detected): 80%; IC50 ([10]; read-out: Fibroblast IC50): 24.6 µM
OC[C@H]1O[C@@H](c2noc(-c3ccccn3)n2)[C@H](O)[C@@H](O)[C@@H]1O [Complex L-2, 3-(β-D-Glucopyranosyl)-5-(pyridin-2-yl)-1,2,4-oxadiazole]								practically inactive	practically inactive	
Cc1ccc(C(C)C)cc1.F[P-](F)(F)(F)(F)F.O=C(OCC1OC(c2noc(-c3ccccn3)n2)C(OC(=O)c2ccccc2)C(OC(=O)c2ccccc2)C1OC(=O)c1ccccc1)c1ccccc1.[Cl][Ru+] (mixture of isomers) [Ru-1]								neither of them showed considerable activity	neither of them showed considerable activity	LogD [9]: 2.79
Cc1ccc(C(C)C)cc1.F[P-](F)(F)(F)(F)F.O=C(OCC1OC(c2nnc(-c3ccccn3)o2)C(OC(=O)c2ccccc2)C(OC(=O)c2ccccc2)C1OC(=O)c1ccccc1)c1ccccc1.[Cl][Ru+] (mixture of isomers) [Ru-3]	2.41	5.66	100	100	6.2 µM and 6.19 µM	100	3.27			
O=C(OC[C@H]1O[C@@H](c2noc(-c3ccccn3)n2)[C@H](OC(=O)c2ccccc2)[C@@H](OC(=O)c2ccccc2)[C@@H]1OC(=O)c1ccccc1)c1ccccc1 [Complex L-1, 3-(2′,3′,4′,6′-Tetra-O-benzoyl-β-D-glucopyranosyl)-5-(pyridin-2-yl)-1,2,4-oxadiazole]								practically inactive	practically inactive	
